Measured values reported in PubChem BioAssay AID2060508 (Molecular Pharmacology Branch, DTP, NCI, 2025).

System: 454973-116-R2-J3-PDC spheroids, viability, % test/control
Assay: Anticancer human tumor 454973-116-R2-J3-PDC patient-derived pancreatic carcinoma cell line growth inhibition [GQUAD]
Details: spheroids with HUVEC and MSC; for IC50: curve of first compound; for viability, T/C: stronger effect = lower value
Method in brief: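 Tumor cells were grown as complex spheroids with HUVEC endothelial cells and mesenchymal stem cells as stroma. G-quadruplex stabilizers were combined with targeted agents over half-log dilutions from near the clinical Cmax, or from 10 microM.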

[1] = second compound 0.0316 µM, first compound 0.0316 µM
[2] = second compound 0.0316 µM, first compound 0.1 µM
[3] = second compound 0.0316 µM, first compound 0.316 µM
[4] = second compound 0.0316 µM, first compound 1 µM
[5] = second compound 0.0316 µM, first compound 3.16 µM
[6] = second compound 0.0316 µM, first compound 10 µM
[7] = second compound 0.1 µM, first compound 0.0316 µM
[8] = second compound 0.1 µM, first compound 0.1 µM
[9] = second compound 0.1 µM, first compound 0.316 µM
[10] = second compound 0.1 µM, first compound 1 µM
[11] = second compound 0.1 µM, first compound 3.16 µM
[12] = second compound 0.1 µM, first compound 10 µM
[13] = second compound 0.316 µM, first compound 0.0316 µM
[14] = second compound 0.316 µM, first compound 0.1 µM
[15] = second compound 0.316 µM, first compound 0.316 µM
[16] = second compound 0.316 µM, first compound 1 µM
[17] = second compound 0.316 µM, first compound 3.16 µM
[18] = second compound 0.316 µM, first compound 10 µM
[19] = second compound 1 µM, first compound 0.0316 µM
[20] = second compound 1 µM, first compound 0.1 µM
[21] = second compound 1 µM, first compound 0.316 µM
[22] = second compound 1 µM, first compound 1 µM
[23] = second compound 1 µM, first compound 3.16 µM
[24] = second compound 1 µM, first compound 10 µM
[25] = second compound 3.16 µM, first compound 0.0316 µM
[26] = second compound 3.16 µM, first compound 0.1 µM
[27] = second compound 3.16 µM, first compound 0.316 µM
[28] = second compound 3.16 µM, first compound 1 µM
[29] = second compound 3.16 µM, first compound 3.16 µM
[30] = second compound 3.16 µM, first compound 10 µM
[31] = second compound 10 µM, first compound 0.0316 µM
[32] = second compound 10 µM, first compound 0.1 µM
[33] = second compound 10 µM, first compound 0.316 µM
[34] = second compound 10 µM, first compound 1 µM
[35] = second compound 10 µM, first compound 3.16 µM
[36] = second compound 10 µM, first compound 10 µM
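Also: spheroids exposed to compounds for seven days.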
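For viability, T/C in this document: 100% = DMSO vehicle control viability.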

Question: Which results are given for `Nc1ccn(C2OC(CO)C(O)C2(F)F)c(=O)n1` (centres undefined) + Cc1[nH]c2ccc(F)cc2c1-c1nc2c3cccnc3c3ncccc3c2[nH]1?
Answer: IC50 (second compound 0.0316 µM): < 31.6 nM; IC50 (second compound 0.1 µM): < 31.6 nM; IC50 (second compound 0.316 µM): < 31.6 nM; IC50 (second compound 1 µM): < 31.6 nM; IC50 (second compound 3.16 µM): < 31.6 nM; IC50 (second compound 10 µM): < 31.6 nM; viability, T/C [1]: 20.1%; viability, T/C [2]: 13.8%; viability, T/C [3]: 17.1%; viability, T/C [4]: 17.2%; viability, T/C [5]: 17.2%; viability, T/C [6]: 15.5%; viability, T/C [7]: 19.7%; viability, T/C [8]: 13.9%; viability, T/C [9]: 15.5%; viability, T/C [10]: 13.7%; viability, T/C [11]: 17.3%; viability, T/C [12]: 14.8%; viability, T/C [13]: 15.3%; viability, T/C [14]: 15.8%; viability, T/C [15]: 17.7%; viability, T/C [16]: 14.5%; viability, T/C [17]: 16.9%; viability, T/C [18]: 15.8%; viability, T/C [19]: 19%; viability, T/C [20]: 19.2%; viability, T/C [21]: 16%; viability, T/C [22]: 20.1%; viability, T/C [23]: 14.2%; viability, T/C [24]: 17.2%; viability, T/C [25]: 16.1%; viability, T/C [26]: 15.6%; viability, T/C [27]: 17.8%; viability, T/C [28]: 17.4%; viability, T/C [29]: 19.1%; viability, T/C [30]: 16.4%; viability, T/C [31]: 17.5%; viability, T/C [32]: 17.6%; viability, T/C [33]: 17%; viability, T/C [34]: 17%; viability, T/C [35]: 13.8%; viability, T/C [36]: 16.6%

Question: For `O=c1[nH]cc(F)c(=O)[nH]1` + Cc1[nH]c2ccc(F)cc2c1-c1nc2c3cccnc3c3ncccc3c2[nH]1, which IC50 (second compound 0.0316 µM) is on record?
Answer: Its IC50 is 2250 nM.

Question: What about the IC50 (second compound 0.1 µM) of the same compound?
Answer: The IC50 was 1530 nM.

Question: What about the IC50 (second compound 0.316 µM) of the same compound?
Answer: Its IC50 is 2190 nM.

Question: What about the IC50 (second compound 1 µM) of the same compound?
Answer: Its IC50 is 2360 nM.

Question: And the IC50 (second compound 3.16 µM)?
Answer: The IC50 was 1920 nM.

Question: And the IC50 (second compound 10 µM)?
Answer: The IC50 was 1880 nM.

Question: And the viability, T/C [1]?
Answer: Its viability, T/C is 116%.

Question: What about the viability, T/C [2] of the same compound?
Answer: Its viability, T/C is 115%.

Question: What about the viability, T/C [3] of the same compound?
Answer: The viability, T/C was 109%.

Question: What about the viability, T/C [4] of the same compound?
Answer: Its viability, T/C is 77.9%.

Question: And the viability, T/C [5]?
Answer: Its viability, T/C is 34.5%.

Question: What about the viability, T/C [6] of the same compound?
Answer: The viability, T/C was 42.2%.

Question: And the viability, T/C [7]?
Answer: The viability, T/C was 105%.

Question: And the viability, T/C [8]?
Answer: Its viability, T/C is 109%.

Question: And the viability, T/C [9]?
Answer: The viability, T/C was 109%.

Question: And the viability, T/C [10]?
Answer: Its viability, T/C is 57.5%.

Question: And the viability, T/C [11]?
Answer: The viability, T/C was 33.7%.

Question: And the viability, T/C [12]?
Answer: Its viability, T/C is 40.5%.

Question: And the viability, T/C [13]?
Answer: The viability, T/C was 107%.

Question: What about the viability, T/C [14] of the same compound?
Answer: Its viability, T/C is 110%.

Question: And the viability, T/C [15]?
Answer: The viability, T/C was 105%.

Question: And the viability, T/C [16]?
Answer: The viability, T/C was 78.9%.

Question: And the viability, T/C [17]?
Answer: Its viability, T/C is 31.8%.

Question: What about the viability, T/C [18] of the same compound?
Answer: The viability, T/C was 41.1%.

Question: And the viability, T/C [19]?
Answer: The viability, T/C was 99.2%.

Question: And the viability, T/C [20]?
Answer: The viability, T/C was 97.2%.

Question: And the viability, T/C [21]?
Answer: Its viability, T/C is 95.4%.

Question: And the viability, T/C [22]?
Answer: Its viability, T/C is 79.1%.

Question: And the viability, T/C [23]?
Answer: The viability, T/C was 33.9%.

Question: And the viability, T/C [24]?
Answer: Its viability, T/C is 46.3%.

Question: And the viability, T/C [25]?
Answer: The viability, T/C was 96.5%.

Question: What about the viability, T/C [26] of the same compound?
Answer: Its viability, T/C is 96.1%.

Question: And the viability, T/C [27]?
Answer: Its viability, T/C is 99.9%.

Question: What about the viability, T/C [28] of the same compound?
Answer: The viability, T/C was 65.1%.

Question: What about the viability, T/C [29] of the same compound?
Answer: The viability, T/C was 31.4%.

Question: And the viability, T/C [30]?
Answer: The viability, T/C was 45.6%.

Question: And the viability, T/C [31]?
Answer: The viability, T/C was 93.5%.

Question: What about the viability, T/C [32] of the same compound?
Answer: Its viability, T/C is 87.7%.

Question: What about the viability, T/C [33] of the same compound?
Answer: The viability, T/C was 102%.

Question: What about the viability, T/C [34] of the same compound?
Answer: The viability, T/C was 63.7%.

Question: What about the viability, T/C [35] of the same compound?
Answer: The viability, T/C was 30.9%.

Question: What about the viability, T/C [36] of the same compound?
Answer: Its viability, T/C is 46.6%.
